According to patent US20260038709A1 (priority 2020, published 2026):
Like-named read-outs stand apart in the source and are kept apart here.

Tests used:
Vapor pressure = assay type: physicochemical; conditions: 20° C.
Boiling point = assay type: physicochemical
[1] = in vivo; cited from earlier work
[2] = Acute inhalation toxicity (LC50 4 h) of mixed gas based on KS B ISO 10298: 2012; conditions: mixed gas of CF3OCFCF2 and CO2, mixing ratio mol %
Description: The mixed gas of the present invention may have a GWP of 1 or less, 0.9 or less, or 0.85 or less. In addition, the mixed gas of the present invention may have a GWP of 0.29 to 1, 0.29 to 0.9, or 0.29 to 0.85. […] In this case, a method for calculating GWP was based on Regulation (EU) NO 517/2014, and LC50, which represents lethal concentration 50% upon inhalation for 4 hours, was based one KS B ISO 10298: 2012.

[3] = Explosion limits of CF3OCFCF2 / CO2 / O2 (triangular diagram)
Text: In this case, the straight line AB may be a straight line connecting point A and point B, the straight line BC may be a straight line connecting point B and point C, the straight line CA may be a straight line connecting point C and point A, and in the point A, (x, y, z) may be (50, 0, 50), in the point B, (x, y, z) may be (5.1, 0, 94.9), and in the point C, (x, y, z) may be (8.2, 80, 11.8). Unlike the case above, when (x, y, z) is present in the triangle ABC (explosion triangle) composed of the points A, B, and C, there may be an explosion hazard due to flammability.
In FIG. 7, the explosion limits indicate the explosion limit line, and is a line connecting the explosion limit points (filled square points). On the other hand, no ignition (hollow rectangle points) indicates a non-ignition point.
In addition, point A in the triangular diagram of FIG. 7 represents upper flammability limit (UFL), and when point A is connected to point C, which is an end point on the explosion limit line, a straight line AC, which is an expected explosion limit (expected line), is formed. […] Meanwhile, the ICR line on the triangle diagram is tangent to the explosion triangle passing through 100% of O2, and the MXC value is 9.3% (C3F6O in CO2).

[4] = Lower flammability limit (LFL) calculation, KS B ISO 10156: 2017 combustible gas standard; conditions: mixed gas of CF3OCFCF2 and CO2, by mixing ratio of CF3OCFCF2; calculation results
Text: Meanwhile, insulating gases used in electric devices that insulate electricity or extinguish arc are not supposed to belong to the category of combustible gases.
The calculation results of the lower flammability limit (LFL) according to the mixing ratio of the mixed gas of CF3OCFCF2 and CO2 are shown in the following table. In this case, the lower flammability limit is a concentration range in which flame propagation may take place when a combustible gas is mixed with air and ignited, expressed in volume concentration (vol %), and refers to the lowest value in this volume concentration.

[5] = Reactivity test with electrodes during dielectric strength test; conditions: room temperature, 1 atm, insulation test chamber
Text: In this case, the reactivity test was to determine a reaction with electrodes upon testing dielectric strength for each mixing ratio of the insulating gases in an enclosed space where no external gas was not allowed to enter (insulation test chamber), at R.T. (room temperature), and at a standard atmospheric pressure of 1 atm. In this case, materials of a sphere electrode are CuCr and Wcu, and materials of a plane electrode are CuCr and SUS.

[6] = Acute inhalation toxicity (LC50 4 h); assay type: in vivo; conditions: inhalation for 4 hours, pure gas

N#CC(F)(C(F)(F)F)C(F)(F)F [(CF3)2CFCN, heptafluoroisobutyronitrile]
Vapor pressure (Vapor pressure): 36.7 psia
Boiling point (Boiling point): −4.7 °C
Acute inhalation toxicity (LC50 4 h) [1]: 10,000-15,000 ppmv

FC(F)=C(F)OC(F)(F)F [CF3OCFCF2, trifluoromethyl trifluorovinyl ether]
LC50 4 h [2]: 15,000 ppmv
Vapor pressure (Vapor pressure): 70.3 psia
Ignition ([3]; C3F6O 8.6, CO2 82.5, O2 8.9 mol %): No ignition confirmed at 8.6% C3F6O
Ignition ([3]; C3F6O 8.8, CO2 85.0, O2 6.2 mol %): No ignition confirmed at 8.8% C3F6O
MXC value ([3]; C3F6O in CO2): 9.3%
Upper flammability limit (UFL), point A, C3F6O ([3]; CO2 0, O2 50 mol %): 50 mol %
Explosion limit (LEL), C3F6O ([3]; CO2 0.0, O2 94.9 mol %): 5.1 mol %
Explosion limit, C3F6O ([3]; CO2 30.0, O2 64.3 mol %): 5.7 mol %
Explosion limit, C3F6O ([3]; CO2 50.0, O2 43.4 mol %): 6.6 mol %
Explosion limit, C3F6O ([3]; CO2 60.0, O2 33.0 mol %): 7.0 mol %
Explosion limit, C3F6O ([3]; CO2 70.0, O2 22.4 mol %): 7.6 mol %
Explosion limit, C3F6O ([3]; CO2 80.0, O2 11.8 mol %, point of tangency of ICR line): 8.2 mol %
Boiling point (Boiling point): −29 °C
Lower flammability limit (LFL) [4]: 7.5 vol %
Reaction with electrodes [5]: reacted with electrodes at atmospheric pressure to form a carbon film
Acute inhalation toxicity (LC50 4 h) [6]: 10,000-15,000 ppmv

FS(F)(F)(F)(F)F [SF6]
Vapor pressure (Vapor pressure): 334 psia
Boiling point (Boiling point): −63.7 °C
Acute inhalation toxicity (LC50 4 h) [6]: 100,000~ ppmv
